Measured values published in patent publication EP0429153A1, “Novel agroclavine and elymoclavine derivatives, processes for their preparation and their use in medicinal preparations” (SCHERING AKTIENGESELLSCHAFT, priority 1989, dated 1991).

System: männliche Wistar-Ratten
Experiment: Induction of stereotypies in rats, automatic registration (method of Horowski)
Type: in vivo
Conditions: intraperitoneal, 60 minutes, n = 12
Source text: Die dopaminagonistische Wirkung wurde mit Hilfe der von Horowski beschriebenen Methode der automatischen Registrierung von Stereotypien an Ratten bestimmt (Arzneim. Forsch. 12, 2281-2286, 1978): Unmittelbar nach intraperitonealer Prüfsubstanz- bzw. Vehikelverabreichung werden männliche Wistar-Ratten (90-120 g) einzeln in Zwangskäfige aus Acrylglas gesetzt. Uber ein vor dem Kopf der Tiere angebrachtes elektrodynamisches Aufnahmesystem wird die Zahl der Kontakte an einem stählernen Becher mit einem zentralen Metallstab als Folge der stereotypen Kau-, Leck- und Nagebewegungen während 60 Minuten registriert. Die Mittelwerte ± S.E.M. der Anzahl der Kontakte während 60 Minuten für die verschiedenen Behandlungsgruppen, die mit jeweils 12 Tieren besetzt sind, werden berechnet und die Signifikanz der Unterschiede zwischen den Mittelwerten der verschiedenen Prüfsubstanzdosen im Vergleich zur Vehikel-behandelten Kontrollgruppe mit Hilfe der einfachen Varianzanalyse in Verbindung mit dem Dunnett-Test ermittelt.

[1] = Prüfsubstanzdosis 0.025 (dose unit not given)
[2] = Prüfsubstanzdosis 0.1 (dose unit not given)
[3] = Prüfsubstanzdosis 0.39 (dose unit not given)
[4] = Prüfsubstanzdosis 1.56 (dose unit not given)

| SMILES | Stereotypien (counts pro 60 Minuten) Mittelwert ± S.F.M.) [1] | Stereotypien (counts pro 60 Minuten) Mittelwert ± S.F.M.) [2] | Stereotypien (counts pro 60 Minuten) Mittelwert ± S.F.M.) [3] | Stereotypien (counts pro 60 Minuten) Mittelwert ± S.F.M.) [4] | Stereotypien (counts pro 60 Minuten) Mittelwert ± S.F.M.) (Prüfsubstanzdosis 6.25 (dose unit not given)) |
| --- | --- | --- | --- | --- | --- |
| CCCN1CC(C)=C[C@@H]2c3cccc4[nH]c(Cl)c(c34)C[C@H]21 [Cl / CH2CH2CH3] | 2091 ± 394 counts pro 60 Minuten | 6470 ± 1018xx counts pro 60 Minuten | 7364 ± 927xx counts pro 60 Minuten | 8837 ± 699xx counts pro 60 Minuten | 10397 ± 1126xx counts pro 60 Minuten |
| CCCN1CC(C)=C[C@@H]2c3cccc4[nH]c(C)c(c34)C[C@H]21 [CH3 / CH2CH2CH3] | 4726 ± 1148xx counts pro 60 Minuten | 7601 ± 1182xx counts pro 60 Minuten | 9200 ± 672xx counts pro 60 Minuten | 10150 ± 598xx counts pro 60 Minuten |  |
